Assays:
hERG ion channel = target: T1, hERG ion channel (Homo sapiens, UniProt Q12809); test: cell-based
T1 construct: expressed in transfected cells; host or cells: HEK-293
From the text: Confirmation of interaction with the potassium channels was made by means of a functional cell test (patch clamp) that uses HEK-293 recombinant human cells that stably express the hERG ion channel, as described in Zhou Z. et al. Biophys. J. 1998; 74:230.
Confirmation of interaction with the potassium channels was made by means of the patch clamp test described in Zhou Z. et al. Biophys. J. 1998; 74:230 using the recombinant human cell line HEK-293, which stably expresses the hERG ion channel.

5-HT2C = target: T2, 5-HT2C (UniProt P28335); test: Binding to the serotoninergic receptors; details: purified membranes
T2 sequence (P28335 1-458): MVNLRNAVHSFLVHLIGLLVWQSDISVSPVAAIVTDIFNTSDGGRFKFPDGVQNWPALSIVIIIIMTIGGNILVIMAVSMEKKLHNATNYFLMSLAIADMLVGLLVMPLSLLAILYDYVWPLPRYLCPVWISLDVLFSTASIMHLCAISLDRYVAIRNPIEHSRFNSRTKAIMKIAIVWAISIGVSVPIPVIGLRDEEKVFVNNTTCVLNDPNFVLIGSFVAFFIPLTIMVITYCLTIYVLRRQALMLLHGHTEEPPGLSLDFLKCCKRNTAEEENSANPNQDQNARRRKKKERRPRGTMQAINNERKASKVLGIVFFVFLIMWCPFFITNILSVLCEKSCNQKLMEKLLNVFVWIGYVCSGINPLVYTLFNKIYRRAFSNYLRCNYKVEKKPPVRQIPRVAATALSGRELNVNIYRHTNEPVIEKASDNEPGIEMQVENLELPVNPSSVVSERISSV
Procedure: (§1) Confirmation of the binding to the serotoninergic receptors was performed by means of the biochemical test on purified membranes from recombinant human cells that stably express the specific receptors or from animal tissues selected as described in particular for each type of serotoninergic receptor, in: Martin G. R. and Humphrey P. P. A. Neuropharmacol. 1994, 33:261; Hoyer D. Eur. J. Pharmacol. 1985, 118:1; Bonhaus DW et al. Br. J. Pharmacol. 1995, 115:622; Wolf WA et al. J. Neurochem. 1997, 69:1449; Boess F G et al. Neuropharmacol. 1997, 36:637; Mialet J et al. Br. J. Pharmacol. 2000; 129:771; Rees S et al. FEBS Lett. 1994, 355:242; Monsma F. J. et al. Mol. Pharmacol. 1993, 43:320; Roth BL et al. J. Pharmacol. Exp. Ther. 1994, 268: 1403; and Shearman L P et al. Am. J. Physiol. 1998, 275: C1621.
(§2) Confirmation of the binding to the serotoninergic receptors was made using purified membranes from selected animal tissues or from recombinant human cells that stably express the specific receptors, as described in: Martin G. R. and Humphrey P. P. A. Neuropharmacol. 1994, 33:261; Hoyer D. Eur. J. Pharmacol. 1985, 118:1; Bonhaus DW et al. Br. J. Pharmacol. 1995, 115:622; Wolf WA et al. J. Neurochem. 1997, 69:1449; Boess FG et al. Neuropharmacol. 1997, 36:637; Mialet J et al. Br. J. Pharmacol. 2000, 129:771; Rees S et al. FEBS Lett. 1994, 355:242; Monsma F. J. et al. Mol. Pharmacol. 1993, 43:320; Roth BL et al. J. Pharmacol. Exp. Ther. 1994, 268: 1403; and Shearman LP et al. Am. J. Physiol. 1998, 275: C1621.

5-HT3 = target: T3, 5-HT3 (UniProt P46098); test: Binding to the serotoninergic receptors; details: purified membranes
T3 sequence (P46098 1-478): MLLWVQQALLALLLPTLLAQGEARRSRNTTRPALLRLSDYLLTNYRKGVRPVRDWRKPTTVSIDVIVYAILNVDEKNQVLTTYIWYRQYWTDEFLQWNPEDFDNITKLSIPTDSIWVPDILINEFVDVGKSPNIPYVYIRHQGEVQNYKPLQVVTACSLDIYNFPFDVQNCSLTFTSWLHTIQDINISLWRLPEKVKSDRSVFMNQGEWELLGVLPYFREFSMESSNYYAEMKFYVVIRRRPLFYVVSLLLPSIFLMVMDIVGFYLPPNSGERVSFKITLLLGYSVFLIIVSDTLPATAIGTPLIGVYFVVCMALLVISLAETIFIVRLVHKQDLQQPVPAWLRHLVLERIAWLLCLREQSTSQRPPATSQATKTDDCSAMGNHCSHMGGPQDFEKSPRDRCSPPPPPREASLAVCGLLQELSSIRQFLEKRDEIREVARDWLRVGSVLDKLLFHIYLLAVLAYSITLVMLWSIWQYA
Procedure: as §1, §2

5-HT7 = 5-HT7 (UniProt P34969); test: Binding to the serotoninergic receptors; details: purified membranes
5-HT7, sequence (P34969 1-432 limits assumed): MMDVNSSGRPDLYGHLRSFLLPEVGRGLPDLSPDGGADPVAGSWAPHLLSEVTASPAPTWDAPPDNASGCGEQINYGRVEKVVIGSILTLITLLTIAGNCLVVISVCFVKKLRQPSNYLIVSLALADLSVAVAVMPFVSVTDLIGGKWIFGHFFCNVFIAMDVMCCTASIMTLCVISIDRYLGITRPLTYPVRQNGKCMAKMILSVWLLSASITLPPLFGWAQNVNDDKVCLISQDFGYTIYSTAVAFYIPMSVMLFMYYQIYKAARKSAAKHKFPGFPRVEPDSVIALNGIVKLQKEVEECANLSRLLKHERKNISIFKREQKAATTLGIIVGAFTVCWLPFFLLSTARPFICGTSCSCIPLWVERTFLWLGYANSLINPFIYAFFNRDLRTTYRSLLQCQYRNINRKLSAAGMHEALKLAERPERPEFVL
Procedure: as §1, §2

5-HT transporter - SERT = 5-HT transporter - SERT (UniProt P31645); test: Binding to the serotoninergic receptors; details: purified membranes
Procedure: as §1, §2

5-HT4 receptor = target: T4, 5-HT4 receptor (Homo sapiens, UniProt Q13639); test: Binding to the serotoninergic receptors
T4 construct: expressed in transfected cells
T4 sequence (Q13639 1-378 isoform Q13639-5): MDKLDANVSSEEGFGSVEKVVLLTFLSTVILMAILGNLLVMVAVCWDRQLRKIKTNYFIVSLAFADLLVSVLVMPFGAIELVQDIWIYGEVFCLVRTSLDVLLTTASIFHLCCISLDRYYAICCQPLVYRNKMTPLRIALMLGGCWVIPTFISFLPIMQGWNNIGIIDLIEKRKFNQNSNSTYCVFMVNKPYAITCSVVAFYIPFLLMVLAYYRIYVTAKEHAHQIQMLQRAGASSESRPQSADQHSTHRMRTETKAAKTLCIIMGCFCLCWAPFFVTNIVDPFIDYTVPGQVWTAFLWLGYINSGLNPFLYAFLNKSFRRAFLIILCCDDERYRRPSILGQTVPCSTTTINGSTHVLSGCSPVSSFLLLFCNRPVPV
Procedure: as §1, §2

5-HT5A = target: T5, 5-HT5A (Homo sapiens, UniProt P47898); test: Binding to the serotoninergic receptors; details: purified membranes
T5 construct: expressed in transfected cells
T5 sequence (P47898 whole entry): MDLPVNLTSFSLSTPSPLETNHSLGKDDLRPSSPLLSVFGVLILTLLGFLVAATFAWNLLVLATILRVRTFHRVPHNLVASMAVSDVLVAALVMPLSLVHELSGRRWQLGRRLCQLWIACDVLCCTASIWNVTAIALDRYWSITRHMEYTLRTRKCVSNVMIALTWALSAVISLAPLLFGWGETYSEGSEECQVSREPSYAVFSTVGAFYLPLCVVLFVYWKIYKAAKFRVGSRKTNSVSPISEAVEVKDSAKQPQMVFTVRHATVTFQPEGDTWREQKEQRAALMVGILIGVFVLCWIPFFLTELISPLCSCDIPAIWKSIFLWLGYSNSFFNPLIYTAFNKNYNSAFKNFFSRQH
Procedure: as §1, §2

5-HT1B = target: T6, 5-HT1B (Rattus norvegicus, UniProt P28564); test: Binding to the serotoninergic receptors; details: purified membranes
T6 construct: purified membranes from selected animal tissues; from tissue; host or cells: animal tissue membranes; rat brain inferred from Hoyer 1985
T6 sequence (P28564 whole entry): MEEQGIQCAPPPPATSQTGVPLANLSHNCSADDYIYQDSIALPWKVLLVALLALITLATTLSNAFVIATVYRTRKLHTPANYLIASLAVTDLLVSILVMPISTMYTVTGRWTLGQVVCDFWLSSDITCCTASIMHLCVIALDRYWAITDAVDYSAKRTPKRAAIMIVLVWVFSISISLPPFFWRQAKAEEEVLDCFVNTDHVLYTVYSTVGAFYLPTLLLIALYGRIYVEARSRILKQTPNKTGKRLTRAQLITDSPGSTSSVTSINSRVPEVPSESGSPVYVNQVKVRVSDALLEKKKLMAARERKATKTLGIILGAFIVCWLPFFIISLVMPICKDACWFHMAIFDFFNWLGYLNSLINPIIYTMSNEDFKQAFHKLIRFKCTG
Procedure: as §1, §2

5-HT2B = target: T7, 5-HT2B (Homo sapiens, UniProt P41595); test: Binding to the serotoninergic receptors; details: purified membranes
T7 construct: expressed in transfected cells
T7 sequence (P41595 whole entry): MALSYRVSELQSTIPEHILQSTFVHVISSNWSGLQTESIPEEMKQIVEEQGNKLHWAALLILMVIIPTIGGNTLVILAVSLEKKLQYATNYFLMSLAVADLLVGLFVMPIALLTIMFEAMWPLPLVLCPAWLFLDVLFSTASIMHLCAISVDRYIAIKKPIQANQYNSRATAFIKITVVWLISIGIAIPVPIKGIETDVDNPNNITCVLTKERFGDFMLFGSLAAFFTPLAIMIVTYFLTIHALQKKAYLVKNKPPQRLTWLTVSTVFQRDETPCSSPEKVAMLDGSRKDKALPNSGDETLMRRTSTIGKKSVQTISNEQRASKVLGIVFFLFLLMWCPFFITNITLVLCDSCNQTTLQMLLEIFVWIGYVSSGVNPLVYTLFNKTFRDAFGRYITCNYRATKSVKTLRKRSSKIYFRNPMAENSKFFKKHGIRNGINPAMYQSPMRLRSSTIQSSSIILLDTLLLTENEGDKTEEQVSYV
Procedure: as §1, §2

5-HT6 = 5-HT6 (UniProt P50406); test: Binding to the serotoninergic receptors; details: purified membranes
Procedure: as §1, §2

5-HT2A = target: T8, 5-HT2A (Homo sapiens, UniProt P28223); test: Binding to the serotoninergic receptors; details: purified membranes
T8 construct: expressed in transfected cells
T8 sequence (P28223 whole entry): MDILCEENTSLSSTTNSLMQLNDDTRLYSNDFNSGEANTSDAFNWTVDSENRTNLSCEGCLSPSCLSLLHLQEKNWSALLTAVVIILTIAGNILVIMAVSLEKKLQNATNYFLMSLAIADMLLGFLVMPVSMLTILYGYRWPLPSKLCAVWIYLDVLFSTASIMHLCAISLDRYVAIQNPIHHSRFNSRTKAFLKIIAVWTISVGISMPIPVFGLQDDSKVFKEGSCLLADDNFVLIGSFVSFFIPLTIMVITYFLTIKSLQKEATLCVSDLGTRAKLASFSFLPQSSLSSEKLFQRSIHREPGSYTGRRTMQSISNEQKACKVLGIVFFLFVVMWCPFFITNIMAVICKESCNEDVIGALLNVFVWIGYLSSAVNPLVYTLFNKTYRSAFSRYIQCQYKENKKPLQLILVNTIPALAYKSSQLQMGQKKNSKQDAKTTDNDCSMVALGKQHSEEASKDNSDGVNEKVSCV
Procedure: as §1, §2

5-HT1A = target: T9, 5-HT1A (Homo sapiens, UniProt P08908); test: Binding to the serotoninergic receptors; details: purified membranes
T9 sequence (P08908 1-422): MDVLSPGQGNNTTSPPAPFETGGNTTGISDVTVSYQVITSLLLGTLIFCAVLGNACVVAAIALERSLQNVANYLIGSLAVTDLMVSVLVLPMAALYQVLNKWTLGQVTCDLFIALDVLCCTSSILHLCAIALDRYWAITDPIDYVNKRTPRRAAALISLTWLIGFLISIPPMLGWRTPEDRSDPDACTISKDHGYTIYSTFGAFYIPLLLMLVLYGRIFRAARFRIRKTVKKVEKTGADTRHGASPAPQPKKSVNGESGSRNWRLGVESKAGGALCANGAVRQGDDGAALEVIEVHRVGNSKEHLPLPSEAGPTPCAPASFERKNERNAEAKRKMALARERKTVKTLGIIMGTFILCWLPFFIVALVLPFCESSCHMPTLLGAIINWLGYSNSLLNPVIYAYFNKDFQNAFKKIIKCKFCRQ
Procedure: as §1, §2

T1 sequence (Q12809 whole entry): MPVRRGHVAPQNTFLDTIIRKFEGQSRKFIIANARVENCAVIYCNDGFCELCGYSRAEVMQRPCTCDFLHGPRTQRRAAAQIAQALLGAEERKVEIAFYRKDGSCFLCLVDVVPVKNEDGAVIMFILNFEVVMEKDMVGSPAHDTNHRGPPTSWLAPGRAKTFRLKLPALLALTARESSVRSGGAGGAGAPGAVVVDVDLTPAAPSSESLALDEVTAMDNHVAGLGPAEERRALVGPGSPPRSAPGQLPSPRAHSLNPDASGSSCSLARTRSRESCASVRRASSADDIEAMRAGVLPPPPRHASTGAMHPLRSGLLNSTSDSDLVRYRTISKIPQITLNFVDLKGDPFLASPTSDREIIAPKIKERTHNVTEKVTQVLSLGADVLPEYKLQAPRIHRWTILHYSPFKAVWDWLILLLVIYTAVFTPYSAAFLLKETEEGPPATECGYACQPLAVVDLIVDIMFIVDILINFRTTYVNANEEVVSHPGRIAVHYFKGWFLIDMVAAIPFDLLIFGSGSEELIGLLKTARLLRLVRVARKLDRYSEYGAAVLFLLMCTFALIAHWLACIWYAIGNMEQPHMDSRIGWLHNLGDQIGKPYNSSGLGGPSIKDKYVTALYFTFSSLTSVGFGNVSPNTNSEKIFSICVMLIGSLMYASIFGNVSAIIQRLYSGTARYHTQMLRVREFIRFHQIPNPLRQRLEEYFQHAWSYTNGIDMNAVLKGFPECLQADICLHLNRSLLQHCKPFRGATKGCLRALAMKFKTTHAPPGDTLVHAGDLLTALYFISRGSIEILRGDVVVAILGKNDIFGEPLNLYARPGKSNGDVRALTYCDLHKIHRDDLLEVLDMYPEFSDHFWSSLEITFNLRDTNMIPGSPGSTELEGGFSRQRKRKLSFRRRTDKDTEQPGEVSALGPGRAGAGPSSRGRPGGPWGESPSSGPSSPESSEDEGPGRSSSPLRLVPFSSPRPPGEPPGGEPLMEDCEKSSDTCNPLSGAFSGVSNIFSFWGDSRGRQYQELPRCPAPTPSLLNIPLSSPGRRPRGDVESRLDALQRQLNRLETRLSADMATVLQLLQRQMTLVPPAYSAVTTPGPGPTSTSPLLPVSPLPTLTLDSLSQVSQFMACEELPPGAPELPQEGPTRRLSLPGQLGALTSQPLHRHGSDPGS

With `CC(C)n1nc(C(=O)NCC2CCN(CCc3ccc(C(=O)O)cc3)CC2)c2ccccc21` [Compound 1, 4-{2-[4-({[(1-Isopropyl-1H-indazol-3-yl)carbonyl]amino}methyl)piperidin-1-yl]ethyl}benzoic acid] the IC50 (hERG ion channel) was > 50 µM, the inhibition at 0.01 µM (hERG ion channel; human) was 0% and the inhibition at 0.1 µM (hERG ion channel; human) was 0%. For the same compound, the inhibition at 1 µM (hERG ion channel; human) was 0.9%, the inhibition at 10 µM (hERG ion channel; human) was 6.5% and the inhibition at 50 µM (hERG ion channel; human) was 18.8%. The melting point was 179 to 181 °C, the IC50 (5-HT2C) was > 10 µM and the IC50 (5-HT3) was > 10 µM. For the same compound, the IC50 (5-HT7) was > 10 µM, the IC50 (5-HT transporter - SERT) was > 10 µM and the IC50 (5-HT4 receptor) was 0.8 nM. For the same compound, the “inhibition of binding to the 5-HT4 receptor (selectivity, in words)” value (5-HT4 receptor; versus the other serotoninergic receptors) was “selective inhibition of binding to the 5-HT4 receptor”, the IC50 (5-HT5A) was > 10 µM and the IC50 (5-HT1B) was > 10 µM. The IC50 (5-HT2B) was > 10 µM, the IC50 (5-HT6) was > 10 µM and the IC50 (5-HT2A) was > 10 µM. The IC50 (5-HT1A) was > 10 µM.

From US8455519B2, “Drug active in neuropathic pain” (Aziende Chimiche Riunite Angelini Francesco A.C.R.A.F. …, priority 2007, dated 2013)
